The IC50 is the concentration that gives 50% inhibition.

Experimental findings from patent EP4534542A1, “THIOSUGAR BASED ISOTHIOCYANATES AND USES THEREOF” (Universidad de Sevilla, priority 2023, dated 2025) are described below.

Where two headings read alike, the source gives them in different places.

The subject of test [1] is HaCaT cells. The test is described as follows: Cell viability assay (resazurin), cytotoxicity in non-malignant cells. The class given is cell-based, human. Particulars: Homo sapiens, HaCaT, read-out: IC50 HaCaT (Non-malignant keratinocyte). The procedure:
(§1) Cells were grown in Dulbecco's Modified Eagle's Medium (DMEM) supplemented with 100 U/mL penicillin, 100 µg/mL streptomycin and 10% fetal bovine serum. HL60 cell line (acute myeloid leukaemia, AML) was obtained from ATCC. It was cultured in IMDM medium supplemented with 100 U/mL penicillin, 100 µg/mL streptomycin and 10% fetal bovine serum. U937 (AML) and Jurkat cells (ALL) were obtained from DMSZ, Braunschweig, Germany, and ATCC, respectively. They were cultivated in RPMI medium, supplemented with 100 U/mL penicillin, 100 µg/mL streptomycin and 10% fetal bovine serum. […] All cell lines were cultured at 37 ° C with 5% CO2 in a humidified incubator. Cell culture reagents were purchased from Biowest. Exponentially growing cells (3000-6000 cells per well) were seeded in 96-well plates. After 24 hours, cells were treated with the drugs for 72 hours. The cell viability was then estimated with the resazurin assay, a colorimetric technique based on the capability of viable cells to reduce the blue reagent resazurin to the pink-soluble product resorufin. The amount of resorufin produced is proportional to the number of viable cells. Briefly, cells were washed once with phosphate buffered saline (PBS) and 150 µL resazurin (20 µg/mL in medium) was added to each well. The plates were incubated for 3 hours at 37 °C, 5% CO2, and finally optical densities were measured at 540 and 620 nm with a multiwell plate spectrophotometer reader (Multiskan EX Labsystems). Cell viability was calculated as a percentage compared to non-treated cells. The results were expressed as the means ± standard error of the mean (SEM). All data are from at least three independent experiments.
On the technique in general: Alamar Blue is a resazurin reagent that responds to reducing activity.

In test [2] the test system is MeWo (human melanoma cells). The test is described as follows: Cell viability assay (resazurin), cytotoxic activity against solid tumours. Type of test: cell-based. The settings on record: for IC50: Homo sapiens, MeWo, read-out: IC50 MeWo (Melanoma; BRAF WT); for S.I. MeWo (Selectivity Index): IC50 HaCaT divided by IC50 MeWo, mean of independent experiments. How it is done: as §1, with “The plates were incubated for 3 hours at 37 °C, 5% CO2, and finally optical densities were measured at 540 and 620 nm with a multiwell plate spectrophotometer reader (Multiskan EX Labsystems).” left out, “experiments. The selectivity index (S.I.) values were calculated over each cancer cell line as the mean of the IC50 value in the non-malignant cell line (HaCaT) by the IC50 in the respective cancer cell line obtained in each independent experiment.” for “experiments.”

Test [3] relates to T24 (human bladder cancer cells). The test is described as above. The settings on record: for IC50: Homo sapiens, read-out: IC50 T24 (Bladder cancer); for S.I. T24 (Selectivity Index): IC50 HaCaT divided by IC50 T24, mean of independent experiments. The class given is cell-based. How it is done: as §1, with “The plates were incubated for 3 hours at 37 °C, 5% CO2, and finally optical densities were measured at 540 and 620 nm with a multiwell plate spectrophotometer reader (Multiskan EX Labsystems).” left out, “experiments. The selectivity index (S.I.) values were calculated over each cancer cell line as the mean of the IC50 value in the non-malignant cell line (HaCaT) by the IC50 in the respective cancer cell line obtained in each independent experiment.” for “experiments.”

Test [4] deals with A549 (human lung adenocarcinoma cells). The test is described as above. Type of test: cell-based. The settings on record: for IC50: Homo sapiens, read-out: IC50 A549 (Lung adenocarcino ma); for S.I. A549 (Selectivity Index): IC50 HaCaT divided by IC50 A549, mean of independent experiments. The procedure: as §1, with “The plates were incubated for 3 hours at 37 °C, 5% CO2, and finally optical densities were measured at 540 and 620 nm with a multiwell plate spectrophotometer reader (Multiskan EX Labsystems).” left out, “experiments. The selectivity index (S.I.) values were calculated over each cancer cell line as the mean of the IC50 value in the non-malignant cell line (HaCaT) by the IC50 in the respective cancer cell line obtained in each independent experiment.” for “experiments.”

The subject of test [5] is HL60 (Acute myeloid leukaemia). The test can be described thus: Antileukemic activity, cell viability (CCK-8 Cell Counting Kit). Type of test: cell-based. Particulars: Homo sapiens, HL-60; 18 h incubation, compounds 0 - 100 µM; read-out: IC50 Cancer cells HL60 (Acute myeloid leukaemia). How it is done: (§2) HaCaT cells (human keratinocytes, reference control), A549 (human lung adenocarcinoma cells), MeWo (human melanoma cells) and T24 (human bladder cancer cells) were purchased from Cell Lines Service (CLS). Cells were grown in Dulbecco's Modified Eagle's Medium (DMEM) supplemented with 100 U/mL penicillin, 100 µg/mL streptomycin and 10% fetal bovine serum. HL60 cell line (acute myeloid leukaemia, AML) was obtained from ATCC. It was cultured in IMDM medium supplemented with 100 U/mL penicillin, 100 µg/mL streptomycin and 10% fetal bovine serum. U937 (AML) and Jurkat cells (ALL) were obtained from DMSZ, Braunschweig, Germany, and ATCC, respectively. They were cultivated in RPMI medium, supplemented with 100 U/mL penicillin, 100 µg/mL streptomycin and 10% fetal bovine serum. OPM-2 cell line (MM), was obtained from DMSZ, Braunschweig, Germany and cultured in RPMI medium supplemented with 100 U/mL penicillin, 100 µg/mL streptomycin, 10% fetal bovine serum and 1X GlutaMAXTM. All cell lines were cultured at 37 ° C with 5% CO2 in a humidified incubator. Cell culture reagents were purchased from Biowest.
(§3) For the leukemic cell lines, the CCK-8 Cell Counting Kit (Dojindo Molecular Technologies) was used according to manufacturers instructions. Briefly, 50.000 cells were seeded in each well of a 96 well plate, and they were treated with increased amounts (0 - 100 µM) of each of the compounds, and incubated for 18 h at 37 °C, 5% CO2. After this period, 7 µl of the CCK-8 reagent were added to each well, and cells were further incubated for 2 h at 37 °C, 5% CO2. OD at 450 nm was obtained using a MultiskanTM GO microplate reader (Thermo Fisher Scientific, Waltham, MA, EE.UU). Cell viability in each condition was normalized to the measurement obtained in the non treated samples (100%), and were represented as average ± standard error of the mean (SEM).
For orientation: Tetrazolium assays rely on reduction of a dye to a coloured formazan, in cell work by metabolically active cells.

Test [6] concerns U937 (Acute myeloid leukaemia). Described as above. Type of test: cell-based. The settings on record: Homo sapiens, U-937; 18 h incubation, compounds 0 - 100 µM; read-out: IC50 Cancer cells U937 (Acute myeloid leukaemia). How it is done:
as §2, §3

Test [7] deals with OPM-2 (Multiple myeloma). The description is as above. Type of test: cell-based. Particulars: Homo sapiens, 18 h incubation, compounds 0 - 100 µM, read-out: IC50 Cancer cells OPM-2 (Multiple myeloma). How it is done:
as §2, §3

Test [8] relates to Jurkat (Acute lymphoblastic leukaemia). Described as above. Type of test: cell-based. The settings on record: Homo sapiens, 18 h incubation, compounds 0 - 100 µM, read-out: IC50 Cancer cells Jurkat (Acute lymphoblastic leukaemia). How it is done: as §2, §3
Where [9] appears, read: 72 h treatment, resazurin assay, mean ± SEM.
Setting [10] is: A549, 72 h treatment, resazurin assay, mean ± SEM.

Regarding `CC(=O)OCC1OC([S+](C)[O-])C(OC(C)=O)C(N=C=S)C1OC(C)=O` [(SS)-16β, Methyl 2,4,6-tri-O-acetyl-3-isothiocyanato-1,3-dideoxy-1-(S)-sulfinyl-β-D-glucopyranoside], the IC50 in test [1] (setting [9]) is more than 100 µM; in test [2] (setting [9]), 122 ± 20.7 µM; in test [3] (setting [9]), 94.2 ± 13.2 µM; in test [4] (setting [10]), 109 ± 23.7 µM; in test [5], 36.9 µM; in test [6], approximately 51.2 µM. In addition, the IC50 in test [7] amounted to 64.9 µM; in test [8], 128 µM.

With `CC[S@+]([O-])[C@@H]1O[C@H](COC(C)=O)[C@@H](OC(C)=O)[C@H](N=C=S)[C@H]1OC(C)=O` [(SS)-17β, Ethyl 2,4,6-tri-O-acetyl-3-isotiocianato-1,3-dideoxy-1[(S)-sulfinyl]-β-D-glucopyranose], the IC50 in test [1] (setting [9]) is 85.2 ± 12.7 µM; in test [2] (setting [9]), 51.5 ± 7.9 µM; in test [3] (setting [9]) it was 42.3 ± 3.2 µM; in test [4] (setting [10]) it was 56.4 ± 6.6 µM; in test [5] it was approximately 25.3 µM; in test [6], 45.6 µM. Also, the IC50 came out at 52.4 µM in test [7] and 89.5 µM in test [8]. Besides, in test [2], the “S.I. MeWo (Selectivity Index)” value was 1.7±0.0. Also, the “S.I. T24 (Selectivity Index)” value in test [3] turned out to be 2.0±0.2. The “S.I. A549 (Selectivity Index)” value in test [4] was 1.5±0.1.

Consider `CC(=O)OC[C@H]1O[C@@H]([S@@+]([O-])c2ccccc2)[C@H](OC(C)=O)[C@@H](N=C=S)[C@@H]1OC(C)=O` [(SS)-18β, Phenyl 2,4,6-tri-O-acetyl-3-isotiocianato-1,3-dideoxy-1[(S)-sulfinyl]-β-D-glucopyranose], for which the IC50 is 24.2 ± 3.9 µM in test [1] (setting [9]); 16 ± 2.6 µM in test [2] (setting [9]); 12.9 ± 3 µM in test [3] (setting [9]); 16.8 ± 2.9 µM in test [4] (setting [10]); approximately 6.6 µM in test [5]; approximately 43.3 µM in test [6]. For the same molecule, the IC50 stood at 16.6 µM in test [7] and 20 µM in test [8]. Moreover, in test [2], the “S.I. MeWo (Selectivity Index)” value worked out at 1.5±0.1. For the same molecule, in test [3], the “S.I. T24 (Selectivity Index)” value is 2.0±0.3. Also, in test [4], the “S.I. A549 (Selectivity Index)” value was 1.5±0.1.

On to `CS(=O)(=O)CCCN=C=S` [Compound 6, 1-isothiocyanato-3-(methylsulfonyl)propane, reference compound], for which the IC50 was 35.9 ± 7.8 µM in test [1] (72 h); 29.5 ± 8.7 µM in test [2] (72 h); 10.7 ± 2.2 µM in test [3] (72 h); 25.2 ± 9.3 µM in test [4] (A549, 72 h); 7 µM in test [5]; 8.4 µM in test [6]. In addition, the IC50 in test [7] stood at 13 µM; in test [8], 10.3 µM. For the same molecule, in test [2], the “S.I. MeWo (Selectivity Index)” value came out at 1.3±0.2. Moreover, the “S.I. T24 (Selectivity Index)” value in test [3] stood at 3.3±0.1. In addition, the “S.I. A549 (Selectivity Index)” value in test [4] is listed as 1.9±0.4.

With `CS[C@@H]1O[C@H](COC(C)=O)[C@@H](OC(C)=O)[C@H](N=C=S)[C@H]1OC(C)=O` [Compound 13β, Methyl 2,4,6-tri-O-acetyl-3-isothiocyanato-1,3-dideoxy-1-thio-β-D-glucopyranoside], the IC50 is 70 ± 4.6 µM in test [1] (setting [9]); 55.9 ± 4.8 µM in test [2] (setting [9]); 42 ± 7.5 µM in test [3] (setting [9]); 51.4 ± 9.2 µM in test [4] (setting [10]); approximately 13 µM in test [5]; approximately 24.2 µM in test [6]. Besides, the results for the IC50 in test [7] and in test [8] were 24.9 µM and 18.7 µM, respectively. For the same molecule, in test [2], the “S.I. MeWo (Selectivity Index)” value is on record as 1.3±0.0. Besides, the “S.I. T24 (Selectivity Index)” value in test [3] amounted to 1.8±0.2. Further, in test [4], the “S.I. A549 (Selectivity Index)” value is 1.5±0.2.

With `CCS[C@H]1O[C@H](COC(C)=O)[C@@H](OC(C)=O)[C@H](N=C=S)[C@H]1OC(C)=O` [Compound 14α, Ethyl 2,4,6-tri-O-acetyl-3-isothiocyanato-1,3-dideoxy-1-thio-α-D-glucopyranoside], the IC50 turned out to be 51.3 ± 1.8 µM in test [1] (setting [9]); 46.4 ± 7.6 µM in test [2] (setting [9]); 40.7 ± 6.9 µM in test [3] (setting [9]); 40.6 ± 9 µM in test [4] (setting [10]); 9.7 µM in test [5]; 25.1 µM in test [6]. For the same molecule, the IC50 in test [7] worked out at 17 µM; in test [8] it was 12.5 µM. Further, the “S.I. MeWo (Selectivity Index)” value in test [2] came out at 1.2±0.2. In test [3], the “S.I. T24 (Selectivity Index)” value worked out at 1.4±0.2. The “S.I. A549 (Selectivity Index)” value in test [4] came out at 1.5±0.3.

As to `CCS[C@@H]1O[C@H](COC(C)=O)[C@@H](OC(C)=O)[C@H](N=C=S)[C@H]1OC(C)=O` [Compound 14β, Ethyl 2,4,6-tri-O-acetyl-3-isothiocyanato-1,3-dideoxy-1-thio-β-D-glucopyranoside], the IC50 was 72.2 ± 13.2 µM in test [1] (setting [9]); 49.9 ± 8.5 µM in test [2] (setting [9]); 42 ± 5.7 µM in test [3] (setting [9]); 45.1 ± 6.8 µM in test [4] (setting [10]); approximately 13 µM in test [5]; approximately 26.7 µM in test [6]. Further, the IC50 turned out to be 20.1 µM in test [7] and 17.8 µM in test [8]. Moreover, the “S.I. MeWo (Selectivity Index)” value in test [2] is 1.5±0.2. In test [3], the “S.I. T24 (Selectivity Index)” value was found to be 1.7±0.2. Besides, the “S.I. A549 (Selectivity Index)” value in test [4] turned out to be 1.6±0.1.
